How the values were obtained:
rat = assay: Formalin test (pain behaviors); assay type: in vivo; conditions: 150 μL of 1 or 2% w/v solution, topical route
Sprague-Dawley rats = assay: Partial sciatic nerve ligation (PSNL) model, behavioral tests; assay type: in vivo, rat; conditions: oral route, measured 30 minutes post dose
Source text: 250-350 g male Sprague-Dawley rats from appropriate animal resources were anesthetized with 2.5% isoflurane. A hind leg was shaved, and the skin was sterilized with 0.5% iodine and 75% alcohol. All surgical instruments were sterilized before surgery and between animals. An incision (1 cm) was made at the middle of the thigh in parallel with the muscle and sciatic nerve distribution. The muscle was exposed and dissected at the joint of two muscles (biceps femoris) indicated by the light colored (white) fascia line. […]
The analgesic effect of the test compound was expressed as a percent recovery (% Recovery) relative to the sham control group baseline and calculated according to the formula: % Recovery=100%−{[(sham mean-test compound mean)/(sham mean-vehicle mean)]×100%} wherein “sham mean” refers to average score in the sham-operated group; “test compound mean” refers to average score in the PSNL-group (animals with partial sciatic nerve ligation) or diabetic group (animals treated with STZ) treated with a test compound; “vehicle mean” refers to average score in the PSNL-group or diabetic group treated with vehicle only. […]
Animals were placed under clear plastic boxes above a wire mesh floor, which allowed full access to the paws. […] Mechanical paw withdrawal thresholds (PWTs) were measured with the up-down testing paradigm. […]

diabetic rats = assay: Anti-diabetic and analgesic effect after chronic dosing in the rat STZ model of diabetes; assay type: in vivo
Experimental: 250-350 g male Sprague-Dawley rats from appropriate animal resources were used. Type I diabetes was induced by a single injection, (intraperitoneally, intravenously or intramuscularly) of 50-100 mg/kg of streptozotocin (STZ, Sigma Chemicals, St. Louis, Mo. or VWR) freshly dissolved in sodium citrate (0.01 M, pH 4.5). Sham animals were given either saline or same vehicle injection. Following a wait time of about two days, inducement of diabetes was confirmed in STZ-injected rats by measuring the plasma glucose concentrations in blood samples from the tail vein after a fast of 6 hours. The glucose level was assayed using a mini glucose monitor (kit for AlphaTRAK 2 meter, available from Abbott Laboratories). Screening for hyperglycemia in STZ-injected animals was done, with only animals with a final blood glucose level ≧300 mg/dl being selected for the study. Glucose levels in the sham animals remained normal. Other parameters (water intake, food intake, and bodyweight) were monitored before the treatment with a test compound and after the cessation of the treatment.
A Compound provided herein is tested in the rat STZ model of diabetes by chronic administration of the Compound for at least 7 days to evaluate analgesic and antidiabetic effects of the Compound. The analgesic effect of the Compound can be evaluated using behavioral tests (e.g., von Frey test, plantar test, and paw pressure test described herein below). The anti-diabetic effect of the Compound can be evaluated based on the improvement in the glucose level, food intake, water intake in the compound treated group compared to the untreated vehicle group and the normal, non-diabetic sham control group.
Diabetes mellitus was induced in rats as described in the section entitled “The Streptozotocin (STZ)-Induced Model of Diabetic Neuropathy” above.
The baseline glucose levels, daily food and water intake and behavioral tests (von Frey, paw pressure and plantar tests) were measured for each animal once weekly for 28 weeks, and once every 2-4 weeks for an additional 28-30 weeks. At a selected week (started from week 6) for a compound test, diabetic rats were divided into two test groups: a vehicle control group and a test compound treated group (n=10 each group). A sham group (saline only without STZ i.p. injection, n=10) was added as a normal, non-diabetic control group. To minimize animal stress associated with repeated daily handling, the compound treated diabetic group of animals received the test compound at a daily dose of 60 mg/kg in their drinking water containing 2% PEG600 and 1% glycofurol (the test compound concentration in the drinking water was based on the individual animal's average daily water consumption as determined the pre-dosing period, which averaged 0.1-0.11 mg/ml). The vehicle control group received drinking water containing 2% PEG600 and 1% glycofurol without the test compound. The treatment continued for 9 days. On day 10 drinking water with test compound or vehicle (2% PEG600 and 1% glycofurol) was replaced with plain drinking water in all groups. The monitoring of glucose levels, food and water intake as well as behavior tests continued for additional 28-30 weeks. […] A gradual, significant reversal of up to 90% of mechanical allodynia (von Frey test) was achieved after 9 days of treatment.
FIGS. 1-3 show food intake, glucose level, and water intake, respectively, for the vehicle control group, the test compound treated group (compound 49, 60 mg/kg/day), and the sham group. […] The significant reduction of food intake, glucose level, and water intake of the compound treated group compared to the vehicle control group continues through week 52. […] Since the standard deviation in the sham groups are less than 5%, no error bars are shown.

NaV1.7 = biological target: T1, NaV1.7 (Homo sapiens, UniProt Q15858); assay: FDSS membrane potential in-vitro assay; assay type: cell-based; conditions: stimulation with veratridine and scorpion venom
T1 construct: expressed in transfected cells
Experimental: In vitro assays were performed in recombinant cell line that stably express a heterotrimeric protein of interest from an introduced nucleic acid encoding the alpha subunit (hNav1.7, SCN9A), the beta subunit (SCNB1) and the beta subunit (SCNB2). The cell line was engineered using Human Embryonic Kidney 293 cells as host background. Additional cell lines stably expressing recombinant Nav1.7 or Nav1.5 alpha subunit alone or in combination with various beta subunits can also be used in in-vitro assays. […]
Blue membrane potential dye (Molecular Devices Inc.), or membrane potential-sensitive dye, HLB021-152 (AnaSpec) were combined with a fluorescence quencher, e.g., Dipicrylamine (DPA), Acid Violet 17 (AV 17), Diazine Black (DB), HLB30818, FD and C Black Shade, Trypan Blue, Bromophenol Blue, HLB30701, HLB30702, HLB30703, Nitrazine Yellow, Nitro Red, DABCYL (Molecular Probes), FD and C Red NO. […]
The cells were incubated with the membrane potential dye for 45-60 mins at 37° C. The dye-loaded assay plates were then placed in the high-throughput fluorescent plate reader (Hamamatsu FDSS). The kinetic read was started with assay plate imaging every second. […]
Control response elicited by veratridine and scorpion venom with buffer only (without test compounds added) was taken as the maximal response. […] The data were analyzed using GraphPad Prism software to determine the […] value for the test compound. […]

[1] = diabetic rats, 60 mg/kg/day in drinking water, 9 days
[2] = measured on day 11, two days after compound withdrawal

T1 sequence (Q15858 whole entry): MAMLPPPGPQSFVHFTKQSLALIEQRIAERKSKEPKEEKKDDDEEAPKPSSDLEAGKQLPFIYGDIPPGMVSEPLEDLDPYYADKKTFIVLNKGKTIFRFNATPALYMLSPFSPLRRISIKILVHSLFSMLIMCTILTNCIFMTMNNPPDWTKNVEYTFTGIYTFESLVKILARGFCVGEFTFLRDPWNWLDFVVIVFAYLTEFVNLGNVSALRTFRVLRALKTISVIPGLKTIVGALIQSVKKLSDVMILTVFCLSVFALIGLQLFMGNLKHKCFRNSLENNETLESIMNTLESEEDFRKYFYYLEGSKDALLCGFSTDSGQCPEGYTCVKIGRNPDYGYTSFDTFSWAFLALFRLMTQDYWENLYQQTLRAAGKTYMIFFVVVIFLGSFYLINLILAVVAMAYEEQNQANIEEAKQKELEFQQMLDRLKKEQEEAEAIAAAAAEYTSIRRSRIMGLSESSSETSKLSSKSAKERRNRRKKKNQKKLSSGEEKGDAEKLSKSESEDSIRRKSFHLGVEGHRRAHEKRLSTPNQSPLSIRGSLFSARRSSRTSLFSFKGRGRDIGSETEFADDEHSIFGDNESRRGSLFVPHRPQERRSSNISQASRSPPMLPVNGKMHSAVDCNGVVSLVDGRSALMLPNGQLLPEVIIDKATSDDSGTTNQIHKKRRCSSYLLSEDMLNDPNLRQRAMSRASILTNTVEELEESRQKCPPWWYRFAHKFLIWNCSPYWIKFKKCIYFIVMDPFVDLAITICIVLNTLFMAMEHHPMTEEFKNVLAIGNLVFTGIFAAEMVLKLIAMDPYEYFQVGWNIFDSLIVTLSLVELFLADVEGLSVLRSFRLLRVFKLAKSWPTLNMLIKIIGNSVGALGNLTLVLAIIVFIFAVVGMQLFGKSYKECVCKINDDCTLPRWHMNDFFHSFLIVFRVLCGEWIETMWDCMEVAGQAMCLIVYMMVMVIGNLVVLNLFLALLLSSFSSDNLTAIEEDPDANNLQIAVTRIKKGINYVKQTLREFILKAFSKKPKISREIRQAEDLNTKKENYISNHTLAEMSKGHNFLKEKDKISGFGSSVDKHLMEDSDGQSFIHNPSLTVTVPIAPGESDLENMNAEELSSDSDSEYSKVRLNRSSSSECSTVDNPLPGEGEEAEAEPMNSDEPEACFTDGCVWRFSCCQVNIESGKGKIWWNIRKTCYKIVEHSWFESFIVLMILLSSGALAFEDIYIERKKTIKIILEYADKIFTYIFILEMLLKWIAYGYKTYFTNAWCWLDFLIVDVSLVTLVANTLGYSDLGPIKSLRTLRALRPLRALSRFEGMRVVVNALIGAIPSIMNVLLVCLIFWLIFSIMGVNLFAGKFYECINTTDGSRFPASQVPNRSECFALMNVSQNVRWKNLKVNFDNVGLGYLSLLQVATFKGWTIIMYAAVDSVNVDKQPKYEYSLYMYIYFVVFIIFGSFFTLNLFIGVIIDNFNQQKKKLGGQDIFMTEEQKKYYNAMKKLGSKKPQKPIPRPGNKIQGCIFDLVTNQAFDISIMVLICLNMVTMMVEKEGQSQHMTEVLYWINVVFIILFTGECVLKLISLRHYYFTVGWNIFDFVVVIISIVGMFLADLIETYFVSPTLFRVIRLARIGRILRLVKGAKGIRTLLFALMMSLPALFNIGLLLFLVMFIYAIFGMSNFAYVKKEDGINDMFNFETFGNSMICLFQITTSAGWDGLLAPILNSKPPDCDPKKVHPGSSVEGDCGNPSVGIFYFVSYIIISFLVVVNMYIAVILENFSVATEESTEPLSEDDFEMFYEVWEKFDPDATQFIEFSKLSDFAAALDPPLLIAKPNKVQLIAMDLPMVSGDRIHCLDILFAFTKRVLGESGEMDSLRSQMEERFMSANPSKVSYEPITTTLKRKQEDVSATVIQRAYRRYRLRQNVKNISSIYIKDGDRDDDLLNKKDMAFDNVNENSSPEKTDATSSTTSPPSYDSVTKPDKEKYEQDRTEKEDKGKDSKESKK
T1 sequence (Q07699 19-218 partner): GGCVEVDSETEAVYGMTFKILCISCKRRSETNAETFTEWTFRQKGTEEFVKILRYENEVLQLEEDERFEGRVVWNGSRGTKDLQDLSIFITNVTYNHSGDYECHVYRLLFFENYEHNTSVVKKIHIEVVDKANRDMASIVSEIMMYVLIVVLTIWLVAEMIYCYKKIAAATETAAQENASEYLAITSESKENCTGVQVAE
T1 sequence (O60939 30-215 partner): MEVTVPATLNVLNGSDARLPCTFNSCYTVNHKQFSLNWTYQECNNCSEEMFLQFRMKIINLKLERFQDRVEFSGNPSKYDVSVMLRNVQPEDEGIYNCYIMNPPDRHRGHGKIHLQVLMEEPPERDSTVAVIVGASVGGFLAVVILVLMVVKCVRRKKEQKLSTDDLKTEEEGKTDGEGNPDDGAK

| Compound | reduction in pain response (formalin assay phase 2) relative to vehicle control (rat) | reduction in pain response (formalin assay, phase 1) relative to vehicle control (rat) | effect in the tactile allodynia test relative to vehicle control (Sprague-Dawley rats) | food intake compared to the vehicle control group (diabetic rats; FIG. 1, 60 mg/kg/day for 9 days, reduction continues through week 52) | glucose level compared to the vehicle control group (diabetic rats; FIG. 2, 60 mg/kg/day for 9 days, reduction continues through week 52) | water intake compared to the vehicle control group (diabetic rats; FIG. 3, 60 mg/kg/day for 9 days, reduction continues through week 52) | general appearance and/or health (diabetic rats; after the treatment stopped on day 9) | mechanical pain (paw pressure test) (diabetic rats; [1]) | tachyphylaxis (diabetic rats; [1]) | thermal pain (plantar test) (diabetic rats; [1]) | paw pressure test threshold after compound withdrawal (diabetic rats; [2]) | plantar test threshold after compound withdrawal (diabetic rats; [2]) | IC50 (NaV1.7) [µM] |
| --- | --- | --- | --- | --- | --- | --- | --- | --- | --- | --- | --- | --- | --- |
| O=C(O)CCNCCCc1cc(Cl)ccc1Oc1cc(F)c(S(=O)(=O)Nc2ncns2)cc1Cl [Compound 12, 3-((3-(2-(4-(N-(1,2,4-thiadiazol-5-yl)sulfamoyl)-2-chloro-5-fluorophenoxy)-5-chlorophenyl)propyl)amino)propanoic acid] | 29-43% | 13-24% |  |  |  |  |  |  |  |  |  |  |  |
| NC(=O)CNCCCc1cc(Cl)ccc1Oc1cc(F)c(S(=O)(=O)Nc2cscn2)cc1Cl [Compound 49, 2-((3-(5-chloro-2-(2-chloro-5-fluoro-4-(N-(thiazol-4-yl)sulfamoyl)phenoxy)phenyl)propyl)amino)acetamide] |  |  | no significant effect | significantly reduced | significantly reduced | significantly reduced | improvements in general appearance and/or health | rapid and sustained improvement | no tachyphylaxis | rapid and sustained improvement | returned to the pretreatment baseline | returned to the pretreatment baseline |  |
| C#CCN(CCCc1cc(Cl)ccc1Oc1cc(F)c(S(=O)(=O)Nc2nccs2)cc1Cl)CC(=O)O [Compound 54, 2-((3-(5-chloro-2-(2-chloro-5-fluoro-4-(N-(thiazol-2-yl)sulfamoyl)phenoxy)phenyl)propyl)(prop-2-yn-1-yl)amino)acetic acid] |  |  | no significant effect |  |  |  |  |  |  |  |  |  | < 0.1 |

Reference: patent US9458118B2, “Sodium channel modulators for the treatment of pain and diabetes” (CHROMOCELL CORPORATION, priority 2013, dated 2016)
